In US12662451B2, “Chemical compounds and uses thereof” (GLAXOSMITHKLINE INTELLECTUAL PROPERTY (NO.4) LIMITED, priority 2023, dated 2026):
Like-named read-outs stand apart in the source and are kept apart here.

What was measured:
[1] = target: T1, recombinant full-length WRN protein (1-1432) (Homo sapiens, UniProt Q14191); assay: WRN unwinding activity, fluorogenic 384-well assay (Example A); type: biochemical; conditions: WRN unwinding activity, 4 hr; Table 2; read-out: 4 hr UNW pIC50 (converted)
T1 construct: recombinant full-length WRN protein (1-1432)
Outline: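 Read-out is end-point unwinding of a fluorophore/quencher duplex (ex 525, em 598 nm) after 60 min with 200 μM ATP and 12 nM DNA (2× stocks), EDTA stop. Compound first sat 4 h with 200 pM WRN (2× stock) in pH 8.0 Tris buffer; four-parameter fit gives pIC50.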

[2] = Cell culture media unbound percentage and stability by rapid equilibrium dialysis (Example C); type: in vitro ADME; conditions: bovine, cell assay medium (RPMI-1640 with 10% fetal bovine serum), pH 7.4, rapid equilibrium dialysis, 4 hours at 37° C., read-out: Cell Culture Media Binding (% unbound)
Outline: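 Percent unbound in cell assay medium came from the LC-MS/MS receiver:donor peak area ratio, with stability taken as the 240 min over 0 min ratio. Set-up: 1 μM nominal compound in medium dialysed against pH 7.4 PBS (100 mM phosphate, 150 mM NaCl), 4 h, 37° C, shaken, in triplicate.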

[3] = tested on: SW48 human colorectal cancer cells; assay: Calculated free drug potency in SW48 cell assay, corrected with media free fraction (Example C); type: cell-based; conditions: Homo sapiens, SW48, SW48 pCC50 corrected with measured free fraction in cell assay media
Outline: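 Free drug potency derives from correcting SW48 assay concentrations with the unbound fraction in medium. That fraction came from RED against pH 7.4 PBS, 1 μM nominal compound, 4 h at 37 °C, quantified by LC-MS/MS peak area ratios at T=240 versus T=0 min.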

[4] = tested on: SW48 human colorectal cancer cells (MSI-H cancer cells); assay: SW48 cell viability, CellTiter-Glo, 120 hours (Example B); conditions: Homo sapiens
[5] = SW48, 120 h, read-out: SW48 pCC50, SW48 cell viability, 120 hours incubation (converted), Table 2
[6] = SW48, read-out: SW48 pCC50, measured potency from Example B, as repeated in Table 3 (converted)

T1 sequence (Q14191 whole entry): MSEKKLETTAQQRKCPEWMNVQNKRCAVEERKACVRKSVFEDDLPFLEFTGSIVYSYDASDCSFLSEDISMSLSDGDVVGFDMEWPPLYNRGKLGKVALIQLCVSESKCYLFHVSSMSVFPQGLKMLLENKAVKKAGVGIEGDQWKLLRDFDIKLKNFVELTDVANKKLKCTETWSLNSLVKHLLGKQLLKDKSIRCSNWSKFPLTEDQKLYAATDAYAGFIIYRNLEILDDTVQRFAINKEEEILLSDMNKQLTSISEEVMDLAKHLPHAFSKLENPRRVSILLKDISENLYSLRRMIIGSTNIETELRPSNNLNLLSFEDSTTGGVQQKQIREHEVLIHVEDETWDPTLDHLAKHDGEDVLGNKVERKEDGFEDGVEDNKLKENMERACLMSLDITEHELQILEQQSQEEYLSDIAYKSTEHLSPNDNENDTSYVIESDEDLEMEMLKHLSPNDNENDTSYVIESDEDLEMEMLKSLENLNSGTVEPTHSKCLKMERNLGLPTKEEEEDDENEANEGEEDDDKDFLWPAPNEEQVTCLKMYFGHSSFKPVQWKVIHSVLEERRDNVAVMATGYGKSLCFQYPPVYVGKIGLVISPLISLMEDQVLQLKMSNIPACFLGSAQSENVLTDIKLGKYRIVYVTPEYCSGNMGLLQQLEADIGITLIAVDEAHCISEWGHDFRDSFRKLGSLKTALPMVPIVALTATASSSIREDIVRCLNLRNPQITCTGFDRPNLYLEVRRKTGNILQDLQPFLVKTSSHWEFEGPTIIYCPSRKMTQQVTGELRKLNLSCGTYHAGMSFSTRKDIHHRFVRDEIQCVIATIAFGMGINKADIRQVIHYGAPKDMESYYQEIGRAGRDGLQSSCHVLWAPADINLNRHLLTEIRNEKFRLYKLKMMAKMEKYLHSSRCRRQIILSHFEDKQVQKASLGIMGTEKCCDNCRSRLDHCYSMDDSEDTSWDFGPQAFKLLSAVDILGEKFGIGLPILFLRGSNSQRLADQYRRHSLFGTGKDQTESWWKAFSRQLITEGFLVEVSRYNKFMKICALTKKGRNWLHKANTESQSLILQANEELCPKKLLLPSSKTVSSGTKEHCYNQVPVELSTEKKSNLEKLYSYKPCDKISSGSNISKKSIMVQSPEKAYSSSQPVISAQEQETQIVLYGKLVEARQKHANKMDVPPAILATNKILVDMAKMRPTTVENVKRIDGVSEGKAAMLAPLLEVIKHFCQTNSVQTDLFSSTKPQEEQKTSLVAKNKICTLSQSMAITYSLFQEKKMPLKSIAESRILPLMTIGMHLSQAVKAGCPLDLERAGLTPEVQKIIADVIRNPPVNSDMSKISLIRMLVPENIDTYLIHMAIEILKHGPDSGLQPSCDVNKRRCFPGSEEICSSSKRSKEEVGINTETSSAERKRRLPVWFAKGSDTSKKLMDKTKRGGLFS

Row | SMILES | IC50 [1] | fraction unbound at 4 h, 1 µM [2] | CC50 [3] | CC50 [4, 5] | CC50 [4, 6]
1 | CCO[C@@H]1C[C@H](c2ccc(N(C)S(=O)(=O)c3ccc4c(c3)nc(N(C)C)n4C)cc2)[C@@H](C(=O)O)[C@H](C(=O)Nc2ccc(C(F)(F)F)cc2F)C1 [Example 139, (1R,2S,4R,6R)-2-(4-((2-(dimethylamino)-N,1-dimethyl-1H-benzo[d]imidazole)-5-sulfonamido)phenyl)-4-ethoxy-6-((2-fluoro-4-(trifluoromethyl)phenyl)carbamoyl)cyclohexane-1-carboxylic acid] | 1.58 nM | 0.0518 | 5.13 nM | 100 nM | 100 nM
2 | CCO[C@@H]1C[C@H](c2ccc(N(C)S(=O)(=O)c3ccc4c(c3)ncn4C)cc2)[C@@H](C(=O)O)[C@H](C(=O)Nc2ccc(C(F)(F)F)cc2F)C1 [Example 140, (1R,2S,4R,6R)-2-(4-((N,1-dimethyl-1H-benzo[d]imidazole)-5-sulfonamido)phenyl)-4-ethoxy-6-((2-fluoro-4-(trifluoromethyl)phenyl)carbamoyl)cyclohexane-1-carboxylic acid] | 2.51 nM | 0.101 | 15.8 nM | 158 nM | 158 nM
3 | CCO[C@@H]1C[C@H](c2ccc(N(C)S(=O)(=O)c3cnc4c(c3)nc(C)n4C)cc2)[C@@H](C(=O)O)[C@H](C(=O)Nc2ccc(C(F)(F)F)cc2F)C1 [Example 141, (1R,2R,4R,6S)-4-ethoxy-2-((2-fluoro-4-(trifluoromethyl)phenyl)carbamoyl)-6-(4-((N,2,3-trimethyl-3H-imidazo[4,5-b]pyridine)-6-sulfonamido)phenyl)cyclohexane-1-carboxylic acid] | 3.16 nM | 0.112 | 70.8 nM | 631 nM | 631 nM
4 | Cc1nc2cc(S(=O)(=O)N(C)c3ccc([C@H]4CCC[C@@H](C(=O)N[C@H]5CC[C@H](C(C)C)CC5)[C@@H]4C(=O)O)cc3)ccc2n1C [Example 180, (1R,2R,6S)-2-(((1r,4R)-4-isopropylcyclohexyl)carbamoyl)-6-(4-((N,1,2-trimethyl-1H-benzo[d]imidazole)-5-sulfonamido)phenyl)cyclohexane-1-carboxylic acid] | 3.98 nM | 0.0357 | 22.4 nM | 631 nM | 631 nM
5 | Cc1nc2cc(S(=O)(=O)N(C)c3ccc([C@H]4CCC[C@@H](COc5ccc(C(F)(F)F)cc5)[C@@H]4C(=O)O)cc3)ccc2n1CCN(C)C [Example 219, (1R,2S,6R)-2-(4-((1-(2-(dimethylamino)ethyl)-N,2-dimethyl-1H-benzo[d]imidazole)-5-sulfonamido)phenyl)-6-((4-(trifluoromethyl)phenoxy)methyl)cyclohexane-1-carboxylic acid] | 5.01 nM | 0.0031 | 19.5 nM | 6310 nM | 6310 nM
6 | CN(c1ccc([C@H]2CCC[C@@H](C(=O)Nc3ccc(C(F)(F)F)cc3F)[C@@H]2C(=O)O)cc1)S(=O)(=O)c1cccc(C2CCNCC2)c1 [Example 261, (1R,2R,6S)-2-((2-fluoro-4-(trifluoromethyl)phenyl)carbamoyl)-6-(4-((N-methyl-3-(piperidin-4-yl)phenyl)sulfonamido)phenyl)cyclohexane-1-carboxylic acid] | 1.58 nM | 0.311 | 309 nM | 1000 nM | 1000 nM
7 | CN(c1ccc([C@H]2CCC[C@@H](C(=O)Nc3ccc(C(F)(F)F)cc3F)[C@@H]2C(=O)O)cc1)S(=O)(=O)c1cccc([C@@H]2CCCNC2)c1 [Example 262, (1R,2R,6S)-2-((2-fluoro-4-(trifluoromethyl)phenyl)carbamoyl)-6-(4-((N-methyl-3-((S)-piperidin-3-yl)phenyl)sulfonamido)phenyl)cyclohexane-1-carboxylic acid] | 1.58 nM | 0.241 | 240 nM | 1000 nM | 1000 nM
8 | CN(c1ccc([C@H]2CCC[C@@H](C(=O)Nc3ccc(C(F)(F)F)cc3F)[C@@H]2C(=O)O)cc1)S(=O)(=O)c1cccc([C@H]2CCCNC2)c1 [Example 263] | 1.58 nM | 0.278 | 55 nM | 200 nM | 200 nM

Continued, in another order:

Row | IC50 [1] | fraction unbound at 4 h, 1 µM [2] | SMILES | CC50 [3] | CC50 [4, 5] | CC50 [4, 6]
9 | 3.98 nM | 0.176 | Cc1nc2cc(S(=O)(=O)N(C)c3ccc([C@H]4CCC[C@@H](C(=O)Nc5ccc(C(F)(F)F)nc5)[C@@H]4C(=O)O)cc3)ccc2n1C [Example 172, (1R,2R,6S)-2-((6-(trifluoromethyl)pyridin-3-yl)carbamoyl)-6-(4-((N,1,2-trimethyl-1H-benzo[d]imidazole)-5-sulfonamido)phenyl)cyclohexane-1-carboxylic acid] | 219 nM | 1260 nM | 1260 nM
10 | 5.01 nM | 0.0163 | Cc1nc2cc(S(=O)(=O)N(C)c3ccc([C@H]4CCC[C@@H](C(=O)Nc5ccc(C(F)(F)F)cc5)[C@@H]4C(=O)O)cc3)ccc2n1C [Example 173, (1R,2R,6S)-2-((4-(trifluoromethyl)phenyl)carbamoyl)-6-(4-((N,1,2-trimethyl-1H-benzo[d]imidazole)-5-sulfonamido)phenyl)cyclohexane-1-carboxylic acid] | 10.2 nM | 631 nM | 631 nM
11 | 1.58 nM | 0.237 | Cc1nc2cc(S(=O)(=O)N(C)c3ccc([C@H]4CCC[C@@H](C(=O)N[C@H]5CC[C@H](C(F)(F)F)CC5)[C@@H]4C(=O)O)cc3)ccc2n1C [Example 177, (1R,2R,6S)-2-(((1r,4R)-4-(trifluoromethyl)cyclohexyl)carbamoyl)-6-(4-((N,1,2-trimethyl-1H-benzo[d]imidazole)-5-sulfonamido)phenyl)cyclohexane-1-carboxylic acid] | 372 nM | 1580 nM | 1580 nM
12 | 2.51 nM | 0.146 | Cc1nc2cc(S(=O)(=O)N(C)c3ccc([C@H]4CCC[C@@H](C(=O)Nc5ccc(C(F)F)cc5F)[C@@H]4C(=O)O)cc3)ccc2n1C [Example 179, (1R,2R,6S)-2-((4-(difluoromethyl)-2-fluorophenyl)carbamoyl)-6-(4-((N,1,2-trimethyl-1H-benzo[d]imidazole)-5-sulfonamido)phenyl)cyclohexane-1-carboxylic acid] | 145 nM | 1000 nM | 1000 nM
13 | 1.58 nM | 0.303 | Cc1nc2cc(S(=O)(=O)N(C)c3ccc([C@H]4CCC[C@@H](C(=O)Nc5ccc(C(C)(C)O)cc5F)[C@@H]4C(=O)O)cc3)ccc2n1C [Example 181, (1R,2R,6S)-2-((2-fluoro-4-(2-hydroxypropan-2-yl)phenyl)carbamoyl)-6-(4-((N,1,2-trimethyl-1H-benzo[d]imidazole)-5-sulfonamido)phenyl)cyclohexane-1-carboxylic acid] | 603 nM | 2000 nM | 2000 nM
14 | 7.94 nM | 0.114 | Cc1nc2cc(S(=O)(=O)N(C)c3ccc([C@H]4CCC[C@@H](C(=O)Nc5ccc6c(c5)CC(F)(F)C6)[C@@H]4C(=O)O)cc3)ccc2n1C [Example 194, (1R,2R,6S)-2-((2,2-difluoro-2,3-dihydro-1H-inden-5-yl)carbamoyl)-6-(4-((N,1,2-trimethyl-1H-benzo[d]imidazole)-5-sulfonamido)phenyl)cyclohexane-1-carboxylic acid] | 1150 nM | 10000 nM | –
15 | 3.16 nM | 0.0606 | CCc1ccc(NC(=O)[C@@H]2CCC[C@H](c3ccc(N(C)S(=O)(=O)c4ccc5c(c4)nc(C)n5C)cc3)[C@H]2C(=O)O)cc1 [Example 196, (1R,2R,6S)-2-((4-ethylphenyl)carbamoyl)-6-(4-((N,1,2-trimethyl-1H-benzo[d]imidazole)-5-sulfonamido)phenyl)cyclohexane-1-carboxylic acid] | 95.5 nM | 1580 nM | 1580 nM
16 | 15.8 nM | 0.0032 | Cc1nc2cc(S(=O)(=O)N(C)c3ccc([C@H]4CCC[C@@H](COc5ccc(C(F)(F)F)cc5O)[C@@H]4C(=O)O)cc3)ccc2n1C [Example 206, (1R,2R,6S)-2-((2-hydroxy-4-(trifluoromethyl)phenoxy)methyl)-6-(4-((N,1,2-trimethyl-1H-benzo[d]imidazole)-5-sulfonamido)phenyl)cyclohexane-1-carboxylic acid] | 12.9 nM | 3980 nM | 3980 nM
